According to patent US20110207655A1, “CYCLIC DEPSIPEPTIDE COMPOUND AND USE THEREOF” (Astellas Pharma Inc., priority 2008, published 2011):
Starred links: 1 amine or outer side, 2 acyl side, 3 side chain; linkers in the order of their positions; H or OH if unused. Positions of bridges follow the written chain, without caps; N, C: chain ends. Non-standard residues stand in square brackets, D forms with d. Residues, ends and D or L forms follow the SMILES beside them. Leu(3R-O(AcLeu(3R-OH))) = CC(=O)N[C@H](C(=O)O[C@H](C(C)C)[C@H](N)C(=O)O)[C@H](O)C(C)C; X1 = CO[C@H](C)C(C(=O)[*:2])N(C)[*:1]; dPhLac = O=C(O)[C@H](O)Cc1ccccc1; NMeA = CN[C@@H](C)C(=O)O; NMeDha = C=C(NC)C(=O)O

Tests used:
[1] = tested on: human platelet aggregation caused by ADP; conditions: Patent Citation 1, Non-Patent Citation 1; cited from earlier work
[2] = tested on: ADP receptors (P2Y1, P2Y2); conditions: in-vitro tests, Non-Patent Citation 3; cited from earlier work
G15 and G16 = conditions: Non-Patent Citation 3; cited from earlier work
[3] = tested on: muscarinic receptors (M1); conditions: in-vitro tests, Non-Patent Citation 3; cited from earlier work
[4] = tested on: LTD4-induced airway contraction; assay: Action on the LTD4-induced airway contraction response by intratracheal administration; format: in vivo, Hartley male guinea pigs; conditions: guinea pigs
Description: Hartley male guinea pigs (Japan SLC, Inc.) were used in experiments. Urethane (1.2 g/kg) was administered intraperitoneally to the guinea pigs for anesthesia. Using needles (30 G), the test compounds (0.3, 1, and 3 μg/kg) at a volume of 0.5 mL/kg or physiological saline was administered by intratracheal injection (3 animals in each group). Cannulation for intravenous administration was carried out in the external jugular vein of the guinea pigs. A tracheostomy cannula was inserted through an incision in the trachea and mechanical ventilation (10 mL/kg, 60 times/min) was carried out using a mechanical ventilator (MODEL683, HARVARD). The mechanical ventilator circuit was connected with a pressure transducer (TP-400T, Nihon Kohden Corporation) and the change in airway pressure was measured. The airway pressure signal was amplified with a strain pressure amplifier (AP-601G, Nihon Kohden Corporation) and recorded on chart paper by a thermal pen recorder (LINEARCORDER F WR3701, Graphtec). The body temperature of the guinea pigs was maintained at 37° C. using a body temperature-maintaining device (BWT-100, Bio Research Center). At 30 minutes after injection by intratracheal administration of the test compound, a solution of LTD4 in physiological saline (0.3 μg/kg) was administered intravenously to induce the airway contraction response.

[5] = tested on: methacholine-induced airway contraction; assay: Inhibitory action of intratracheal administration on the methacholine-induced airway contraction; format: in vivo, SD male rats; conditions: rats; for airway contraction inhibitory rate: 1 hour before methacholine 30 μg/kg i.v., vs saline group
Description: SD male rats (Charles River Laboratories Japan, Inc.) were used in experiments. Urethane (1.2 g/kg) was administered intraperitoneally to the rats for anesthesia. Using a metal canula for intratracheal administration, test compounds (0.3, 1, and 3 μg/kg) or physiological saline was administered intratracheally (3 or 4 animals) at a volume of 0.5 mL/kg. Cannulation for intravenous administration was carried out in the external jugular vein of the rats. A tracheostomy cannula was inserted through an incision in the trachea and mechanical ventilation (10 mL/kg, 90 times/min) was carried out using a Breathing Analysis Computer System (flexiVent, SCIREQ Inc.). The mechanical ventilator circuit was connected with a pressure transducer (TP-400T, Nihon Kohden Corporation) and the change in airway pressure was measured. The airway pressure signal was amplified with a strain pressure amplifier (AP-601G, Nihon Kohden Corporation) and recorded on chart paper by a thermal pen recorder (WT-685G, Nihon Kohden Corporation, or LINEARCORDER F WR3701, Graphtec). The body temperature of the rats was maintained at 37° C. using a body temperature-maintaining device (BWT-100, Bio Research
Center). At 1 hour after intratracheal administration of the test compound, a solution of acetyl-β-methacholine chloride in physiological saline (30 μg/kg, acetylcholine β-methacholine chloride=manufactured by SIGMA Co.) was administered intravenously to induce the airway contraction response. The airway contraction inhibitory rate of the test compound was calculated by comparing the airway pressure increase rate (%) with one obtained by intratracheal administration of physiological saline, and ED50 values were determined.

C=C1C(=O)N[C@@H](C)C(=O)N(C)[C@@H](C)C(=O)N[C@@H]([C@H](OC(=O)[C@@H](NC(C)=O)[C@H](O)C(C)C)C(C)C)C(=O)N(C)C([C@@H](C)OC)C(=O)O[C@H](C)[C@H](NC(C)=O)C(=O)O[C@H](Cc2ccccc2)C(=O)N1C (stereo partly drawn) [Ref 1] (Ac-T[dPhLac][NMeDha]A[NMeA][Leu(3R-O(AcLeu(3R-OH)))][X1]; ester 1-C)
human platelet aggregation caused by ADP [1]: inhibits | reactions of ADP receptors (P2Y1, P2Y2) [2]: inhibits | inhibition of G15 and G16 (G15 and G16): does not inhibit | reactions of muscarinic receptors (M1) [3]: inhibits | ED50 ([4]; Cavia porcellus, iv, intratracheal, 30 minutes before LTD4 0.3 μg/kg i.v., read-out: ED50 value of inhibition of LTD4-induced airway contraction): 1.1 µg/kg | LTD4-induced airway contraction response ([4]; intratracheal administration): inhibited | ED50 ([5]; Rattus norvegicus, intratracheal, calculated from three points, read-out: ED50 value of inhibition of methacholine-induced airway contraction): 0.73 µg/kg | airway contraction inhibitory rate ([5]; intratracheal 0.3 μg/kg): 32% | airway contraction inhibitory rate ([5]; intratracheal 1 μg/kg): 45% | airway contraction inhibitory rate ([5]; intratracheal 3 μg/kg): 98%
